From patent US10227323B2, “Glucosylceramide synthase inhibitors for the treatment of diseases” (BIOMARIN PHARMACEUTICAL INC., priority 2013, dated 2019)

Target: T1, GCS (Canis lupus familiaris, UniProt A0A8I3MXG6)
T1 sequence (A0A8I3MXG6 1-394): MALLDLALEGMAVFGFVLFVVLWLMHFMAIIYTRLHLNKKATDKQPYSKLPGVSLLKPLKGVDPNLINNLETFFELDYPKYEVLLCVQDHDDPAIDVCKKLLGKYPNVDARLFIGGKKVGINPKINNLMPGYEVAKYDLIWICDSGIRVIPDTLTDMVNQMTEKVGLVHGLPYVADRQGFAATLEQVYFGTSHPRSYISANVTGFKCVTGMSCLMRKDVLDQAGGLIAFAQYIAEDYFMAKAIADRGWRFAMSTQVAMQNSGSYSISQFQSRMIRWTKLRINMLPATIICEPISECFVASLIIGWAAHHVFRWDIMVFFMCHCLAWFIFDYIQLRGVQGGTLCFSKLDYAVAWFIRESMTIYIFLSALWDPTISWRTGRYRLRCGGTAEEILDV
Assay: Assay 1: GCS Enzymatic Assay (MDCK cell lysate, C6-NBD-Ceramide, LC/MS)
Type: biochemical, canine
Details: Table 1; MDCK cell lysate; read-out: IC50 (nM) generated from Assay 1
Method: This assay was modified based on the study by Larsen et al. (J. Lipid Res. 2011, 53, 282). Madin-Darby canine kidney (MDCK) cell lysate was prepared using M-PER Mammalian Protein Extraction Reagent (Thermal Scientific) in the presence of a protease inhibitor cocktail (Roche). Protein concentration was determined using BCA assay kit (Pierce). Sixty micrograms of MDCK cell lysate was incubated with various concentrations of a compound described herein from 0.001 μM-10 μM, respectively, in 100 mM Tris buffer (pH 7.5) containing 10 mM MgCl2, 1 mM dithiothreitol, 1 mM EGTA, 2 mM NAD, 100 μM UDP-glucose, 10 μM C6-NBD-Ceramide (Matreya LLC, Pleasant Gap, Pa.), 35 μM dioleoylphosphatidylcholine and 5 μM sulfatide (Sigma) in a final reaction volume of 100 μL at 37° C. for 1 hour. 0.1% DMSO was used as mock treatment or control. The reaction was terminated by adding 100 μL acetonitrile solution and subjected to LC/MS analysis.
The quantitative analysis of NBD-Ceramide and glucosylceramide was performed on a Shimadzu ultra-fast liquid chromatography (Shimadzu, Japan) coupled with API 4000 triple quadrupole mass spectrometer (Applied Biosystems, Concord, Ontario, Canada). Sample separation was conducted on a Waters Xbridge™ BEH130 C18, 100 mm×4.6 mm i.d, 3.5 μm (Milford, Mass., USA). The mobile phase consisted of water and acetonitrile supplemented with 0.1% formic acid (v/v). The flow rate was 1.0 mL/min. The initial mobile phase was 20% acetonitrile and was ramped in a linear fashion to 50% acetonitrile in 0.4 min. From 0.4 to 1.5 min, the gradient was ramped to 98% acetonitrile, and then was held at […] until 8.0 min. Acetonitrile was reset to 20% in 1.5 min, and maintained until 10.0 min. The total run time was 10.0 min. The MS/MS detection was performed in ESI positive mode. The mass transition of NBD-Ceramide was m/z 576.36→558.40 under the collision energy of 15 V, and the mass transition of glucosylceramide was m/z 738.35→558.40 under 21V collision energy. The cell lysate was diluted with equal volume of acetonitrile. Aliquots of 50 μL diluted samples were added to 1.5 mL tubes, and 100 μL of acetonitrile containing internal standard (100 ng/mL tolbutamide) were added for protein precipitation. The mixture were vortexed and then centrifuged at 13000 rpm for 10 min. 70 μL of supernatant were mixed with 140 μL of H2O and the final solution were injected for LC/MS/MS analysis and IC50's and/or percent inhibitions calculated.

SMILES | IC50
Cn1c(C(F)(F)C(=O)N[C@H](CN2CCCC2)[C@H](O)c2ccc3c(c2)OCCO3)cc2cc(Cl)ccc21 [Compound 14, 2-(5-chloro-1-methyl-1H-indol-2-yl)-N-((1R,2R)-1-(2,3-dihydrobenzo[b][1,4]dioxin-6-yl)-1-hydroxy-3-(pyrrolidin-1-yl)propan-2-yl)-2,2-difluoroacetamide] | < 50 nM
O=C(N[C@H](CN1CCCC1)[C@H](O)c1ccc2c(c1)OCCO2)C(F)(F)c1cc2cc(Cl)cc(Cl)c2o1 [Compound 15, 2-(5,7-dichlorobenzofuran-2-yl)-N-((1R,2R)-1-(2,3-dihydrobenzo[b][1,4]dioxin-6-yl)-1-hydroxy-3-(pyrrolidin-1-yl)propan-2-yl)-2,2-difluoroacetamide] | < 50 nM
O=C(N[C@H](CN1CCCC1)[C@H](O)c1ccc2c(c1)OCCO2)C(F)(F)CCc1cccc(-c2ccccn2)c1 [Compound 16, N-((1R,2R)-1-(2,3-dihydrobenzo[b][1,4]dioxin-6-yl)-1-hydroxy-3-(pyrrolidin-1-yl)propan-2-yl)-2,2-difluoro-4-(3-(pyridin-2-yl)phenyl)butanamide] | < 50 nM
O=C(N[C@H](CN1CCCC1)[C@H](O)c1ccc2c(c1)OCCO2)C(F)(F)Cc1ccc2ccccc2c1 [Compound 17, N-((1R,2R)-1-(2,3-dihydrobenzo[b][1,4]dioxin-6-yl)-1-hydroxy-3-(pyrrolidin-1-yl)propan-2-yl)-2,2-difluoro-3-(naphthalen-2-yl)propanamide] | 50 to 5000 nM
O=C(N[C@H](CN1CCCC1)[C@H](O)c1ccc2c(c1)OCCO2)C(F)(F)CCc1ccc2ccccc2c1 [Compound 22, N-((1R,2R)-1-(2,3-dihydrobenzo[b][1,4]dioxin-6-yl)-1-hydroxy-3-(pyrrolidin-1-yl)propan-2-yl)-2,2-difluoro-4-(naphthalen-2-yl)butanamide] | < 50 nM

Now from value to compound:

IC50 | SMILES
50 to 5000 nM | O=C(N[C@H](CN1CCCC1)[C@@H](O)c1cc2c(cc1F)OCCO2)C(F)(F)C1Cc2ccccc2C1 [Compound 12B, 2-(2,3-dihydro-1H-inden-2-yl)-2,2-difluoro-N-((1S,2R)-1-(7-fluoro-2,3-dihydrobenzo[b][1,4]dioxin-6-yl)-1-hydroxy-3-(pyrrolidin-1-yl)propan-2-yl)acetamide]
50 to 5000 nM | O=C(N[C@H](CN1CCCC1)[C@H](O)c1ccc2c(c1)OCCO2)C(F)(F)C1Cc2cc3nccnc3cc2C1 [Compound 13, 2-(7,8-dihydro-6H-cyclopenta[g]quinoxalin-7-yl)-N-((1R,2R)-1-(2,3-dihydrobenzo[b][1,4]dioxin-6-yl)-1-hydroxy-3-(pyrrolidin-1-yl)propan-2-yl)-2,2-difluoroacetamide]
< 50 nM | O=C(N[C@H](CN1CCCC1)[C@H](O)c1ccc2c(c1)OCCO2)C(F)(F)c1cc2c(Cl)c(Cl)ccc2o1 [Compound 19, 2-(4,5-dichlorobenzofuran-2-yl)-N-((1R,2R)-1-(2,3-dihydrobenzo[b][1,4]dioxin-6-yl)-1-hydroxy-3-(pyrrolidin-1-yl)propan-2-yl)-2,2-difluoroacetamide]
< 50 nM | O=C(N[C@H](CN1CCCC1)[C@H](O)c1ccc2c(c1)OCCO2)C(F)(F)C1Cc2ccc(F)cc2C1 (stereo partly drawn) [Compound 21, N-((1R,2R)-1-(2,3-dihydrobenzo[b][1,4]dioxin-6-yl)-1-hydroxy-3-(pyrrolidin-1-yl)propan-2-yl)-2,2-difluoro-2-(5-fluoro-2,3-dihydro-1H-inden-2-yl)acetamide]
< 50 nM | O=C(N[C@H](CN1CCCC1)[C@H](O)c1ccc2c(c1)OCCO2)C(F)(F)c1cc2ccccc2o1 [Compound 23, 2-(benzofuran-2-yl)-N-((1R,2R)-1-(2,3-dihydrobenzo[b][1,4]dioxin-6-yl)-1-hydroxy-3-(pyrrolidin-1-yl)propan-2-yl)-2,2-difluoroacetamide]
< 50 nM | O=C(N[C@H](CN1CCCC1)[C@H](O)c1ccc2c(c1)OCCO2)C(F)(F)c1cc2cc(F)ccc2o1 [Compound 24, N-((1R,2R)-1-(2,3-dihydrobenzo[b][1,4]dioxin-6-yl)-1-hydroxy-3-(pyrrolidin-1-yl)propan-2-yl)-2,2-difluoro-2-(5-fluorobenzofuran-2-yl)acetamide]
< 50 nM | O=C(N[C@H](CN1CCCC1)[C@H](O)c1ccc2c(c1)OCCO2)C(F)(F)c1cc2cc(F)ccc2s1 [Compound 28, N-((1R,2R)-1-(2,3-dihydrobenzo[b][1,4]dioxin-6-yl)-1-hydroxy-3-(pyrrolidin-1-yl)propan-2-yl)-2,2-difluoro-2-(5-fluorobenzo[b]thiophen-2-yl)acetamide]
< 50 nM | O=C(N[C@H](CN1CCCC1)[C@H](O)c1ccc2c(c1)OCCO2)C(F)(F)c1cc2cc(C(F)(F)F)ccc2o1 [Compound 30, N-((1R,2R)-1-(2,3-dihydrobenzo[b][1,4]dioxin-6-yl)-1-hydroxy-3-(pyrrolidin-1-yl)propan-2-yl)-2,2-difluoro-2-(5-(trifluoromethyl)benzofuran-2-yl)acetamide]
< 50 nM | O=C(N[C@H](CN1CCCC1)[C@H](O)c1ccc2c(c1)OCCO2)C(F)(F)c1cc2cc(Br)ccc2o1 [Compound 31, 2-(5-bromobenzofuran-2-yl)-N-((1R,2R)-1-(2,3-dihydrobenzo[b][1,4]dioxin-6-yl)-1-hydroxy-3-(pyrrolidin-1-yl)propan-2-yl)-2,2-difluoroacetamide]

Same assay, conditions: Table 1; values marked *; MDCK cell lysate

SMILES | % inhibition generated from Assay 1
O=C(N[C@H](CN1CCCC1)[C@H](O)c1ccc2c(c1)OCCO2)C(F)(F)c1cc2cc(Cl)c(Cl)cc2o1 [Compound 18, 2-(5,6-dichlorobenzofuran-2-yl)-N-((1R,2R)-1-(2,3-dihydrobenzo[b][1,4]dioxin-6-yl)-1-hydroxy-3-(pyrrolidin-1-yl)propan-2-yl)-2,2-difluoroacetamide] | B* (the compound had a % inhibition of greater than or equal to about 3% but less than about 50%)
O=C(N[C@H](CN1CCCC1)[C@H](O)c1ccc2c(c1)OCCO2)C(F)(F)Cc1cccc(-c2ccccn2)c1 [Compound 20, N-((1R,2R)-1-(2,3-dihydrobenzo[b][1,4]dioxin-6-yl)-1-hydroxy-3-(pyrrolidin-1-yl)propan-2-yl)-2,2-difluoro-3-(3-(pyridin-2-yl)phenyl)propanamide] | B* (the compound had a % inhibition of greater than or equal to about 3% but less than about 50%)
O=C(N[C@H](CN1CCCC1)[C@@H](O)c1ccc2c(c1)OCCO2)C(F)(F)CCc1ccc2ccccc2c1 [Compound 22K, N-((1S,2R)-1-(2,3-dihydrobenzo[b][1,4]dioxin-6-yl)-1-hydroxy-3-(pyrrolidin-1-yl)propan-2-yl)-2,2-difluoro-4-(naphthalen-2-yl)butanamide] | B* (the compound had a % inhibition of greater than or equal to about 3% but less than about 50%)
O=C(N[C@H](CN1CCCC1)[C@H](O)c1ccc2c(c1)OCCO2)C(F)(F)/C=C/c1ccc(Cl)cc1 [Compound 25, (E)-4-(4-chlorophenyl)-N-((1R,2R)-1-(2,3-dihydrobenzo[b][1,4]dioxin-6-yl)-1-hydroxy-3-(pyrrolidin-1-yl)propan-2-yl)-2,2-difluorobut-3-enamide] | B* (the compound had a % inhibition of greater than or equal to about 3% but less than about 50%)
NC1CC2CCC(C1)N2C[C@@H](NC(=O)C(F)(F)c1cc2cc(Cl)ccc2o1)[C@H](O)c1ccc2c(c1)OCCO2 (stereo partly drawn) [Compound 26, N-((1R,2R)-3-(3-amino-8-azabicyclo[3.2.1]octan-8-yl)-1-(2,3-dihydrobenzo[b][1,4]dioxin-6-yl)-1-hydroxypropan-2-yl)-2-(5-chlorobenzofuran-2-yl)-2,2-difluoroacetamide] | B* (the compound had a % inhibition of greater than or equal to about 3% but less than about 50%)
